# Assay results: paper PMC4815073, “Targeting of tubulin polymerization and induction of mitotic blockage by Methyl 2-(5-fluoro-2-hydroxyphenyl)-1H-benzo[d]imidazole-5-carboxylate (MBIC) in human cervical cancer HeLa cell” (Journal of Experimental & Clinical Cancer Research : CR, 2016)
# Legend:
# HeLa cells [1] = test: Multiparameter cytotoxicity assay (Cellomics HCS); assay type: cell-based, human; conditions: 24 h
# Method: The critical apoptotic events in cervical cancer including cell permeability, mitochondrial membrane potential (MMP), cytochrome c release and total nuclear intensity after treatment with MBIC were determined using the Cellomics Multiparameter Cytotoxicity 3 Kit. Briefly, 1 × 10 ^4 cells/well were seeded in a 96-well plate and incubated for 24 h prior to treatment with MBIC at various concentrations. At 24 h post treatment, cells were stained with cell permeability and MMP dye and further incubated for 1 h. Stained cells were fixed and permeabilized with 4 % formaldehyde and 0.1 % Triton X-100 in PBS, respectively. Cells were washed twice with 1X PBS prior to blocking with 3 % bovine serum albumin.
# Cells were rinsed twice with Wash Buffer I (1X PBS) and incubated with 50 μl/well of Cytochrome c primary antibody. After 60 min, the plate was washed with 1X Wash Buffer and subsequently, 50 μl of goat anti-mouse secondary antibodies conjugated with DyLight 649 were added into each well. Cells were rinsed twice with Wash Buffer I (1X PBS). Hoechst 33342 was added into the staining solution to stain the nucleus. Stained cells in the 96-well plates were analyzed using ArrayScan High Content Screening (HCS) system (Thermo Scientific, USA).
# [2] = system: Cyclin B1, CDK1, BubR1, Aurora B; test: Western blot, cell-cycle related proteins in HeLa cells; assay type: cell-based, human; conditions: HeLa, 0.21, 0.42 and 1 μM, 24 h
# Method: Western blot analysis was used to investigate protein expression levels. It was adopted by Suresh Kumar et al.. Briefly, 1 × 10^5 cells/flask was seeded and treated with MBIC in a dose-dependent manner for 24 h. Cells treated with colchicine and nocodazole served as positive controls. Cells were collected and lysed in RIPA buffer supplemented with a 10 μl protease inhibitor cocktail, sodium orthovanadate, and PMSF (Santa Cruz, USA). The lysate was stored at −80 °C until further use. A 40 μg of sample protein was resolved on 10 % SDS-PAGE and transferred to a polyvinylidene difluoride (PVDF) membrane (Merck Millipore, USA). The membrane was blocked in 5 % BSA for 1 h at room temperature following an overnight incubation at 4 °C with the following primary antibodies: Anti-Cyclin B1, anti-CDK1, anti-BubR1, anti-Aurora B, anti-cleaved PARP, anti-cleaved caspase-3/7/9, anti-Bcl-2 and anti-Bax (1:1000) (Cell Signaling Technology (CST), USA), mouse anti β-actin (1:40000) (Sigma-Aldrich, USA) antibodies.
# Membranes were washed with 1X TBS-T prior to incubating with HRP-conjugated goat anti-mouse or anti-rabbit secondary antibodies for 2 h at room temperature. Membranes were washed 3 times with 1X TBS-T to remove excess antibodies before the proteins-antibody complex was detected with Amersham ECL prime western blotting detection reagent (GE Healthcare, USA). Western blot images were quantified and processed by ImageJ software (NIH, USA).
# HeLa cells [3] = test: MTT cytotoxicity assay, HeLa; assay type: cell-based, human; conditions: for IC50: Homo sapiens, HeLa, MTT; for SI (Selectivity Index): IC50 WRL-68 / IC50 HeLa
# Excerpt: (§1) The human cervical cancer cell-line, HeLa (CCL-2.2; ATCC, Manassas, VA), HCT-116 (CCL-247; ATCC, Manassas, VA), A549 (CCL-185; ATCC, Manassas, VA), HepG-2 (HB-8065; ATCC, Manassas, VA) and WRL-68 (CL-48; ATCC, Manassas, VA), were obtained from American Type Culture Collection (ATCC). HeLa, A549, HepG2 and WRL68 cells were maintained in Dulbecco’s Modified Eagle Medium (DMEM, Life Technologies, Inc, Rockville, MD). HCT-116 was obtained in McCoy’s 5a Medium Modified (Life Technologies, Inc, Rockville, MD) supplemented with 10 % fetal bovine serum and 1 % penicillin/streptomycin. Cells were incubated at 37 °C in a humidified cell culture 5 % CO2 incubator. Cells were passaged until reaching 70-80-% confluency for experimental purposes.
# (§2) Cytotoxicity of MBIC was estimated by MTT assay. Briefly, 1 × 10^4 cells/well were seeded in a 96-well plate and incubated at 37 °C in 5 % CO2. After 24 h, cells were treated with different concentrations (0.02, 0.04, 0.1, 0.2, 0.4, 0.8, 1.5, 3, 6, 12, 25, 50 μM) of MBIC. 0.01 % DMSO was used as vehicle control. Cells were incubated for 24 and 48 h at 37 °C. Subsequently, 50 μl/well of 3-(4,5-dimethylthiazol-2-yl)-2,5-diphenyltetrazolium bromide (MTT, 2 mg/ml) was added and incubated for 2 h. After the incubation, the media was discarded and 100 μl DMSO was replaced into each well to dissolve the formazan crystal. The colorimetric assay was quantified at 570 nm wavelength using Chameleon V microplate reader (Hidex, Turku, Finland). The anti-proliferation activity of MBIC was expressed as an IC50 value. The percentage of cell viability was calculated as described previously.
# tubulin = target: T1, tubulin (Sus scrofa, UniProt P02550+P02554); test: Tubulin polymerization assay; assay type: biochemical; conditions: 10 μM drug, 3 mg/ml tubulin, 37 °C, 340 nm; untreated 12 mOD/min
# T1 construct: purchased Cytoskeleton BK011P
# T1 sequence (P02550 whole entry): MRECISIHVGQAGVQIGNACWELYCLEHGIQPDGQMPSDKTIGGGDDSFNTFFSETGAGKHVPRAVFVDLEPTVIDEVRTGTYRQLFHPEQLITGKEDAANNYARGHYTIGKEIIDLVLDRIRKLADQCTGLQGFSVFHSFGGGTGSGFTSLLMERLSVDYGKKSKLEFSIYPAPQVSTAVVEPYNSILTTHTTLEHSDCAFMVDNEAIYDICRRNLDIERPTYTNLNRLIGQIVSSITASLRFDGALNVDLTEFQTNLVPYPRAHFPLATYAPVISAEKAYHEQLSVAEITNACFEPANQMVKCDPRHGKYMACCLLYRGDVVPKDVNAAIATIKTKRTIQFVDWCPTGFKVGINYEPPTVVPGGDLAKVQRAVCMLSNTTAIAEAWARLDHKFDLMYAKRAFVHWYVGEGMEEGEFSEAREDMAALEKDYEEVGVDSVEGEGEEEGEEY
# T1 sequence (P02554 whole entry): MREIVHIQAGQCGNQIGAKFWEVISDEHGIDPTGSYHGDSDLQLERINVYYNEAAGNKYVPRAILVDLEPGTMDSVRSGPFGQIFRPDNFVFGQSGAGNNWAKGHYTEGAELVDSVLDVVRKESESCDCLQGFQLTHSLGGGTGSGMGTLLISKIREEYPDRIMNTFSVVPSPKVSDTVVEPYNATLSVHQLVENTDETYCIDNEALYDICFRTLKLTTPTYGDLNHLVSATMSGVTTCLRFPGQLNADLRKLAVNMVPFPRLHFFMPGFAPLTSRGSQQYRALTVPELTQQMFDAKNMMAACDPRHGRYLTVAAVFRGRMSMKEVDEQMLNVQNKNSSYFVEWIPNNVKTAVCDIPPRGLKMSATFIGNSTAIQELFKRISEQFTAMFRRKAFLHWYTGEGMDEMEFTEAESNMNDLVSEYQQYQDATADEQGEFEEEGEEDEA
# Method: To investigate the effect of MBIC on tubulin polymerization, a fluorescence-based tubulin polymerization assay kit (Cytoskeleton-Cat. # BK011P) was used according to the manufacturer’s protocol. Briefly, 200 μl of pure tubulin protein was re-suspended in 420 μl of ice cold Tubulin Polymerization Buffer (TPB) to give a final concentration of 3 mg/ml tubulin, supplemented with 80 mM PIPES, 2 mM MgCl2, 0.5 mM EGTA, 1 mM GTP, 20 % (v/v) glycerol. 100 μl of tubulin reaction mixture were added to each well in a 96-well plate containing the selected concentration of MBIC (10 μM). […] Samples were mixed well and the tubulin assembly was monitored by an increase in fluorescence emission at 340 nm in kinetic mode for 120 min at 37 °C using a plate reader (Infinite® 200 PRO—Tecan plate reader, USA).
# A549 cells = test: MTT cytotoxicity assay, A549; assay type: cell-based, human; conditions: for IC50: Homo sapiens, MTT
# Excerpt: as §1, §2
# HCT-116 cells = test: MTT cytotoxicity assay, HCT-116; assay type: cell-based, human; conditions: for IC50: Homo sapiens, MTT
# Excerpt: as §1, §2
structure (smiles),measurement,setting,value
"COC(=O)c1ccc2[nH]c(-c3cc(F)ccc3O)nc2c1 [MBIC, Methyl 2-(5-fluoro-2-hydroxyphenyl)-1H-benzo[d]imidazole-5-carboxylate]",cytochrome c release,HeLa cells [1]; 0.2 and 0.4 μM,considerable elevation
same,cell number (loss of cells),HeLa cells [1]; 0.2 and 0.42 μM,dose-dependent loss of cells
same,membrane permeability,HeLa cells [1]; 0.2 and 0.42 μM,increase of membrane permeability
same,"mitochondrial membrane potential (MMP, Δψm)",HeLa cells [1]; 0.2 and 0.42 μM,exhaustion of MMP
same,Aurora B protein level (Western blot),[2],down-regulated
same,BubR1 protein level (Western blot),[2],up-regulated
same,CDK1 protein level (Western blot),[2],up-regulation
same,Cyclin B1 protein level (Western blot),[2],up-regulation
same,IC50,HeLa cells [3]; 24 hours,0.21 ± 0.02 µM
same,IC50,HeLa cells [3]; 48 hours,0.19 ± 0.03 µM
same,SI (Selectivity Index),HeLa cells [3]; 24 hours,48.04
same,SI (Selectivity Index),HeLa cells [3]; 48 hours,37.68
same,selectivity in HeLa cells,"HeLa cells [3]; versus WRL-68, 24 and 48 h",> 30 fold
same,Tubulin polymerization maximal velocity (Vmax),tubulin,2.45 mOD/min
same,IC50,"A549 cells; A549, 24 hours",1.29 ± 0.07 µM
same,IC50,"A549 cells; A549, 48 hours",0.53 ± 0.1 µM
same,SI (Selectivity Index),"A549 cells; IC50 WRL-68 / IC50 A549, 24 hours",7.82
same,SI (Selectivity Index),"A549 cells; IC50 WRL-68 / IC50 A549, 48 hours",13.50
same,IC50,"HCT-116 cells; HCT-116, 24 hours",2.72 ± 0.4 µM
same,IC50,"HCT-116 cells; HCT-116, 48 hours",2.01 ± 0.3 µM
same,SI (Selectivity Index),"HCT-116 cells; IC50 WRL-68 / IC50 HCT-116, 24 hours",3.70
same,SI (Selectivity Index),"HCT-116 cells; IC50 WRL-68 / IC50 HCT-116, 48 hours",3.56
